Measurements reported in publication PMC5423977, “Safety, pharmacokinetics, and pharmacodynamics of BMS-986142, a novel reversible BTK inhibitor, in healthy participants” (European Journal of Clinical Pharmacology, 2017).

Assay: Safety and tolerability (adverse events), Study 1 MAD in healthy participants
Format: in vivo, human
[1] = Study 1 MAD group, BMS-986142-treated
[2] = Study 1 MAD, all BMS-986142 doses, n = 24

Cc1c(-c2c(F)cc(C(N)=O)c3[nH]c4c(c23)CC[C@H](C(C)(C)O)C4)cccc1-n1c(=O)c2cccc(F)c2n(C)c1=O [BMS-986142, 6-fluoro-5-(R)-(3-(S)-(8-fluoro-1-methyl-2,4-dioxo-1,2-dihydroquinazolin-3(4H)-yl)-2-methylphenyl)-2-(S)-(2-hydroxypropan-2-yl)-2,3,4,9-tetrahydro-1H-carbazole-8-carboxamide]
8 participants: Participants with AEs [1]
1 (4.2) n (%): AE SOC: Ear and labyrinth disorders (MAD any dose, n = 24) | AE SOC: Eye disorders (MAD any dose, n = 24) | AE SOC: Infections and infestations (MAD any dose, n = 24) | AE SOC: Injury, poisoning and procedural complications (MAD any dose, n = 24) | AE SOC: Musculoskeletal and connective tissue disorders (MAD any dose, n = 24) | AE SOC: Nervous system disorders (MAD any dose, n = 24) | AE SOC: Psychiatric disorders (MAD any dose, n = 24) | AE SOC: Skin and subcutaneous tissue disorders (MAD any dose, n = 24) | AE: Abdominal pain (MAD any dose, n = 24) | AE: Back pain (MAD any dose, n = 24) | AE: Cerumen impaction (MAD any dose, n = 24) | AE: Cough (MAD any dose, n = 24) | AE: Diarrhoea (MAD any dose, n = 24) | AE: Eye pain (MAD any dose, n = 24) | AE: Haemoptysis (MAD any dose, n = 24) | AE: Headache (MAD any dose, n = 24) | AE: Psychotic disorder (MAD any dose, n = 24) | AE: Rash (MAD any dose, n = 24) | AE: Thermal burn (MAD any dose, n = 24) | AE: Throat irritation (MAD any dose, n = 24) | AE: Upper respiratory tract infection (MAD any dose, n = 24) | AE: Cough [2] | AE: Diarrhea [2] | AE: Headache/tension headache [2] | AE: Thermal burns [2] | AE: Upper respiratory tract infection [2]
13 AEs: Number of AEs reported [1]
2 (33.3) n (%): Total subjects with an event (MAD 25 mg QD, n = 6) | AE SOC: Gastrointestinal Disorders (MAD 75 mg QD, n = 6)
4 (66.7) n (%): Total subjects with an event (MAD 75 mg QD, n = 6)
0 n (%): AE SOC: Ear and labyrinth disorders (MAD 25 mg QD, n = 6) | AE SOC: Gastrointestinal Disorders (MAD 25 mg QD, n = 6) | AE SOC: Infections and infestations (MAD 25 mg QD, n = 6) | AE SOC: Investigations (MAD 25 mg QD, n = 6) | AE SOC: Musculoskeletal and connective tissue disorders (MAD 25 mg QD, n = 6) | AE SOC: Nervous system disorders (MAD 25 mg QD, n = 6) | AE SOC: Psychiatric disorders (MAD 25 mg QD, n = 6) | AE SOC: Skin and subcutaneous tissue disorders (MAD 25 mg QD, n = 6) | AE: Abdominal pain (MAD 25 mg QD, n = 6) | AE: Back pain (MAD 25 mg QD, n = 6) | AE: Blood creatinine phosphokinase increased (MAD 25 mg QD, n = 6) | AE: Cerumen impaction (MAD 25 mg QD, n = 6) | AE: Diarrhoea (MAD 25 mg QD, n = 6) | AE: Haemoptysis (MAD 25 mg QD, n = 6) | AE: Headache (MAD 25 mg QD, n = 6) | AE: Psychotic disorder (MAD 25 mg QD, n = 6) | AE: Rash (MAD 25 mg QD, n = 6) | AE: Somnolence (MAD 25 mg QD, n = 6) | AE: Syncope (MAD 25 mg QD, n = 6) | AE: Throat irritation (MAD 25 mg QD, n = 6) | AE: Upper respiratory tract infection (MAD 25 mg QD, n = 6) | AE SOC: Eye disorders (MAD 75 mg QD, n = 6) | AE SOC: Infections and infestations (MAD 75 mg QD, n = 6) | AE SOC: Injury, poisoning and procedural complications (MAD 75 mg QD, n = 6) | AE SOC: Investigations (MAD 75 mg QD, n = 6) | AE SOC: Musculoskeletal and connective tissue disorders (MAD 75 mg QD, n = 6) | AE SOC: Skin and subcutaneous tissue disorders (MAD 75 mg QD, n = 6) | AE: Back pain (MAD 75 mg QD, n = 6) | AE: Blood creatinine phosphokinase increased (MAD 75 mg QD, n = 6) | AE: Cough (MAD 75 mg QD, n = 6) | AE: Eye pain (MAD 75 mg QD, n = 6) | AE: Rash (MAD 75 mg QD, n = 6) | AE: Somnolence (MAD 75 mg QD, n = 6) | AE: Syncope (MAD 75 mg QD, n = 6) | AE: Thermal burn (MAD 75 mg QD, n = 6) | AE: Upper respiratory tract infection (MAD 75 mg QD, n = 6) | AE SOC: Ear and labyrinth disorders (MAD 200 mg QD, n = 6) | AE SOC: Eye disorders (MAD 200 mg QD, n = 6) | AE SOC: Gastrointestinal Disorders (MAD 200 mg QD, n = 6) | AE SOC: Injury, poisoning and procedural complications (MAD 200 mg QD, n = 6) | AE SOC: Investigations (MAD 200 mg QD, n = 6) | AE SOC: Nervous system disorders (MAD 200 mg QD, n = 6) | AE SOC: Psychiatric disorders (MAD 200 mg QD, n = 6) | AE SOC: Respiratory, thoracic and mediastinal disorders (MAD 200 mg QD, n = 6) | AE SOC: Skin and subcutaneous tissue disorders (MAD 200 mg QD, n = 6) | AE: Abdominal pain (MAD 200 mg QD, n = 6) | AE: Blood creatinine phosphokinase increased (MAD 200 mg QD, n = 6) | AE: Cerumen impaction (MAD 200 mg QD, n = 6) | AE: Cough (MAD 200 mg QD, n = 6) | AE: Diarrhoea (MAD 200 mg QD, n = 6) | AE: Eye pain (MAD 200 mg QD, n = 6) | AE: Haemoptysis (MAD 200 mg QD, n = 6) | AE: Headache (MAD 200 mg QD, n = 6) | AE: Psychotic disorder (MAD 200 mg QD, n = 6) | AE: Rash (MAD 200 mg QD, n = 6) | AE: Somnolence (MAD 200 mg QD, n = 6) | AE: Syncope (MAD 200 mg QD, n = 6) | AE: Thermal burn (MAD 200 mg QD, n = 6) | AE: Throat irritation (MAD 200 mg QD, n = 6) | AE SOC: Ear and labyrinth disorders (MAD 350 mg QD, n = 6) | AE SOC: Eye disorders (MAD 350 mg QD, n = 6) | AE SOC: Gastrointestinal Disorders (MAD 350 mg QD, n = 6) | AE SOC: Infections and infestations (MAD 350 mg QD, n = 6) | AE SOC: Injury, poisoning and procedural complications (MAD 350 mg QD, n = 6) | AE SOC: Investigations (MAD 350 mg QD, n = 6) | AE SOC: Musculoskeletal and connective tissue disorders (MAD 350 mg QD, n = 6) | AE SOC: Nervous system disorders (MAD 350 mg QD, n = 6) | AE SOC: Psychiatric disorders (MAD 350 mg QD, n = 6) | AE SOC: Respiratory, thoracic and mediastinal disorders (MAD 350 mg QD, n = 6) | AE: Abdominal pain (MAD 350 mg QD, n = 6) | AE: Back pain (MAD 350 mg QD, n = 6) | AE: Blood creatinine phosphokinase increased (MAD 350 mg QD, n = 6) | AE: Cerumen impaction (MAD 350 mg QD, n = 6) | AE: Cough (MAD 350 mg QD, n = 6) | AE: Diarrhoea (MAD 350 mg QD, n = 6) | AE: Eye pain (MAD 350 mg QD, n = 6) | AE: Haemoptysis (MAD 350 mg QD, n = 6) | AE: Headache (MAD 350 mg QD, n = 6) | AE: Psychotic disorder (MAD 350 mg QD, n = 6) | AE: Somnolence (MAD 350 mg QD, n = 6) | AE: Syncope (MAD 350 mg QD, n = 6) | AE: Thermal burn (MAD 350 mg QD, n = 6) | AE: Throat irritation (MAD 350 mg QD, n = 6) | AE: Upper respiratory tract infection (MAD 350 mg QD, n = 6) | AE SOC: Investigations (MAD any dose, n = 24) | AE: Blood creatinine phosphokinase increased (MAD any dose, n = 24) | AE: Somnolence (MAD any dose, n = 24) | AE: Syncope (MAD any dose, n = 24) | AE: Dizziness [2] | AE: Nausea [2]
2 (8.3) n (%): AE SOC: Gastrointestinal Disorders (MAD any dose, n = 24) | AE SOC: Respiratory, thoracic and mediastinal disorders (MAD any dose, n = 24)
1 (16.7) n (%): AE SOC: Eye disorders (MAD 25 mg QD, n = 6) | AE SOC: Injury, poisoning and procedural complications (MAD 25 mg QD, n = 6) | AE SOC: Respiratory, thoracic and mediastinal disorders (MAD 25 mg QD, n = 6) | AE: Cough (MAD 25 mg QD, n = 6) | AE: Eye pain (MAD 25 mg QD, n = 6) | AE: Thermal burn (MAD 25 mg QD, n = 6) | AE SOC: Ear and labyrinth disorders (MAD 75 mg QD, n = 6) | AE SOC: Nervous system disorders (MAD 75 mg QD, n = 6) | AE SOC: Psychiatric disorders (MAD 75 mg QD, n = 6) | AE SOC: Respiratory, thoracic and mediastinal disorders (MAD 75 mg QD, n = 6) | AE: Abdominal pain (MAD 75 mg QD, n = 6) | AE: Cerumen impaction (MAD 75 mg QD, n = 6) | AE: Diarrhoea (MAD 75 mg QD, n = 6) | AE: Haemoptysis (MAD 75 mg QD, n = 6) | AE: Headache (MAD 75 mg QD, n = 6) | AE: Psychotic disorder (MAD 75 mg QD, n = 6) | AE: Throat irritation (MAD 75 mg QD, n = 6) | AE SOC: Infections and infestations (MAD 200 mg QD, n = 6) | AE SOC: Musculoskeletal and connective tissue disorders (MAD 200 mg QD, n = 6) | AE: Back pain (MAD 200 mg QD, n = 6) | AE: Upper respiratory tract infection (MAD 200 mg QD, n = 6) | Total subjects with an event (MAD 200 mg QD, n = 6) | AE SOC: Skin and subcutaneous tissue disorders (MAD 350 mg QD, n = 6) | AE: Rash (MAD 350 mg QD, n = 6) | Total subjects with an event (MAD 350 mg QD, n = 6)
8 (33.3) n (%): Total subjects with an event (MAD any dose, n = 24) | Subjects with AEs [2]
